The values that follow come from patent publication US12497460B2, “Anti-MSR1 antibodies and methods of use thereof” (REGENERON PHARMACEUTICALS, INC., priority 2018, dated 2025).

The test system of experiment [1] is LXR (THP1/LXR-Luc cells). Briefly: Cell based LXR responsive luciferase reporter assay (Examples 34A, 34C). Conditions: Homo sapiens, payload compounds, differentiated THP-1/LXR-Luc cells (Table 30); for maximal fold induction: read-out: S/N. Here is the method: The activity of certain LXR agonist payloads described herein were assessed in a cell based LXR responsive luciferase reporter assay. To generate the assay cell line, an LXR regulated luciferase reporter gene (Cignal Lenti LXR Reporter (luc) kit (Qiagen, Cat #CLS-001L)) was transduced into THP1 cells and the cells were selected for two weeks in puromycin. The lentivirus expresses the firefly luciferase gene under the control of a minimal CMV promoter and tandem repeats of the LXR transcriptional response element. The resulting cell line is referred to as THP1/LXR-Luc cells. For the assay, THP1/LXR-Luc cells were seeded onto 96 well plates at 40,000 cells/well in media containing RPMI supplemented with 10% FBS and penicillin/streptomycin and were then differentiated with 200 nM Phorbol Myristate Acetate (PMA) for 3 days. The media was subsequently removed and replaced with 80 uL of fresh media without PMA. Three-fold serial dilutions of free payloads were prepared in 100% DMSO, transferred to fresh media, and 20 uL were added to the cells at a final constant DMSO concentration of 0.2% and free payloads at final concentrations ranging from 100 nM to 0.015 nM. The last well in the plate served as blank control containing only the media and 0.2% DMSO (untreated well) and was plotted as a continuation of the 3-fold serial dilution. Forty-eight hours later, luciferase activity was determined after the addition of One-Glo™ reagent (Promega, Cat #E6130) to each well. Relative light units (RLUs) were measured on a Victor luminometer (PerkinElmer) and EC50 values were determined using a four-parameter logistic equation over a 10-point dose response curve (GraphPad Prism). The signal to noise (S/N) was determined by taking the ratio of the highest RLU on the dose response curve to the RLU in the untreated wells.
Several linker-payloads (LPs) were derived from the payload compounds in Table C and conjugated to an anti-MSR1 antibody (H1H21234N-N297Q) or a non-binding control using the techniques described in the previous example. The resulting anti-MSR1 LXR agonist antibody drug conjugates (ADCs) were tested for activity in the THP1/LXRLuc reporter assay as described above for the payload compounds.
For orientation: A reporter such as luciferase makes a cellular process visible.

Experiment [2] deals with S. aureus MRSA strain NRS384 in humanized MSR1 mice. Put plainly: S. aureus IV disseminated infection mouse model, kidney burden. In kind it is in vivo. Here is the method:
To test the efficacy of an anti-MSR1 Ab-antibiotic ncADC of the invention in vivo, an intravenous disseminated infection model was utilized. S. aureus MSRA strain NRS384 was grown overnight in trypic soy broth (TSB) and sub-cultured to mid-logarithmic phase. Bacteria were then washed twice with PBS and resuspended in PBS at a concentration of 1.2×10^8 cfu/mL. […] From one to three days post infection, mice were treated with 110 mg/kg vancomycin subcutaneously twice daily where indicated. […] Mice were monitored for weight loss and body conditioning score throughout the infection. At four days post infection, mice were euthanized and the S. aureus kidney burden was quantified by tissue homogenization followed by enumeration of colony forming units through serial dilution in PBS and plating onto trypicase soy agar plates.

[3] abbreviates: vancomycin treatment alone, limit of detection 250 cfu.

As to `C[C@]1(C(=O)NC(=O)[C@@]2(C)CCC[C@]3(C)c4cc(O)ccc4CC[C@@H]23)CCC[C@]2(C)c3cc(N)ccc3CC[C@@H]12` [P1, (1S,4aS,10aR)-N-[(1S,4aS,10aR)-6-Amino-1,4a-dimethyl-1,2,3,4,4a,9,10,10a-octahydrophenanthrene-1-carbonyl]-6-hydroxy-1,4a-dimethyl-1,2,3,4,4a,9,10,10a-octahydrophenanthrene-1-carboxamide], in experiment [1], the EC50 (in general, the concentration giving half of the maximal effect) is 1.14 nM and the maximal fold induction came to 11.4.
With `C[C@]1(C(=O)NC(=O)[C@@]2(C)CCC[C@]3(C)c4cc(N)ccc4CC[C@@H]23)CCC[C@]2(C)c3cc(N)ccc3CC[C@@H]12` [P2B, (1S,4aS,10aR)-6-Amino-N-((1S,4aS,10aR)-6-amino-1,4a-dimethyl-1,2,3,4,4a,9,10,10a-octahydrophenanthrene-1-carbonyl)-1,4a-dimethyl-1,2,3,4,4a,9,10,10a-octahydrophenanthrene-1-carboxamide], in experiment [1], a half-maximal response (EC50) required 0.292 nM and the maximal fold induction came out at 11.3.
The matching figures for `C[C@]1(C(=O)NC(=O)[C@@]2(C)CCC[C@]3(C)c4cc(NC(=O)CN)ccc4CC[C@@H]23)CCC[C@]2(C)c3cc(N)ccc3CC[C@@H]12` [P4B, (1S,4aS,10aR)-N-[(1S,4aS,10aR)-6-(2-Aminoacetamido)-1,4a-dimethyl-1,2,3,4,4a,9,10,10a-octahydrophenanthrene-1-carbonyl]-6-amino-1,4a-dimethyl-1,2,3,4,4a,9,10,10a-octahydrophenanthrene-1-carboxamide]: 0.125 nM and 10.4.
The matching figures for `C[C@]1(C(=O)NC(=O)[C@@]2(C)CCC[C@]3(C)c4cc(NC(=O)[C@@H](N)CO)ccc4CC[C@@H]23)CCC[C@]2(C)c3cc(N)ccc3CC[C@@H]12` [P5B, (1S,4aS,10aR)-6-Amino-N-((1S,4aS,10aR)-6-((S)-2-amino-3-hydroxypropanamido)-1,4a-dimethyl-1,2,3,4,4a,9,10,10a-octahydrophenanthrene-1-carbonyl)-1,4a-dimethyl-1,2,3,4,4a,9,10,10a-octahydrophenanthrene-1-carboxamide]: 0.174 nM and 13.8.
Regarding `C[C@]1(C(=O)NC(=O)[C@@]2(C)CCC[C@]3(C)c4cc(NC(=O)[C@@H](N)CCCCN)ccc4CC[C@@H]23)CCC[C@]2(C)c3cc(N)ccc3CC[C@@H]12` [P6B, (1S,4aS,10aR)-6-Amino-N-((1S,4aS,10aR)-6-((S)-2,6-diaminohexanamido)-1,4a-dimethyl-1,2,3,4,4a,9,10,10a-octahydrophenanthrene-1-carbonyl)-1,4a-dimethyl-1,2,3,4,4a,9,10,10a-octahydrophenanthrene-1-carboxamide], in experiment [1], the EC50 was found to be 3.34 nM and the maximal fold induction was 10.9.
As to `C[C@]1(C(=O)NC(=O)[C@@]2(C)CCC[C@]3(C)c4cc(NC(=O)[C@@H](N)CC(=O)O)ccc4CC[C@@H]23)CCC[C@]2(C)c3cc(N)ccc3CC[C@@H]12` [P7B, (S)-3-Amino-4-((4bS,8S,8aR)-8-((1S,4aS,10aR)-6-amino-1,4a-dimethyl-1,2,3,4,4a,9,10,10a-octahydrophenanthrene-1-carbonylcarbamoyl)-4b,8-dimethyl-4b,5,6,7,8,8a,9,10-octahydrophenanthren-3-ylamino)-4-oxobutanoic acid], in experiment [1], a half-maximal effect (EC50) was put at 0.253 nM and the maximal fold induction turned out to be 12.5.
With `C[C@]1(C(=O)NC(=O)[C@@]2(C)CCC[C@]3(C)c4cc(NC(=O)[C@@H](N)CCC(=O)O)ccc4CC[C@@H]23)CCC[C@]2(C)c3cc(N)ccc3CC[C@@H]12` [P8B, (S)-4-Amino-5-((4bS,8S,8aR)-8-((1S,4aS,10aR)-6-Amino-1,4a-dimethyl-1,2,3,4,4a,9,10,10a-octahydrophenanthrene-1-carbonylcarbamoyl)-4b,8-dimethyl-4b,5,6,7,8,8a,9,10-octahydrophenanthren-3-ylamino)-5-oxopentanoic acid], in experiment [1], it took 3.51 nM to reach a half-maximal effect (EC50) and the maximal fold induction is 10.8.
The matching figures for `C[C@]1(C(=O)NC(=O)[C@@]2(C)CCC[C@]3(C)c4cc(NC(=O)[C@@H](N)Cc5cnc[nH]5)ccc4CC[C@@H]23)CCC[C@]2(C)c3cc(N)ccc3CC[C@@H]12` [P9B, (1S,4aS,10aR)-6-amino-N-((1S,4aS,10aR)-6-((S)-2-amino-3-(1H-imidazol-4-yl)propanamido)-1,4a-dimethyl-1,2,3,4,4a,9,10,10a-octahydrophenanthrene-1-carbonyl)-1,4a-dimethyl-1,2,3,4,4a,9,10,10a-octahydrophenanthrene-1-carboxamide]: 0.234 nM and 12.8.
The matching figures for `C[C@]1(C(=O)NC(=O)[C@@]2(C)CCC[C@]3(C)c4cc(NC(=O)[C@@H](N)CCC(=O)O)ccc4CC[C@@H]23)CCC[C@]2(C)c3cc(NC(=O)CN)ccc3CC[C@@H]12` [P10B, (S)-4-Amino-5-((4bS,8S,8aR)-8-((1S,4aS,10aR)-6-(2-aminoacetamido)-1,4a-dimethyl-1,2,3,4,4a,9,10,10a-octahydrophenanthrene-1-carbonylcarbamoyl)-4b,8-dimethyl-4b,5,6,7,8,8a,9,10-octahydrophenanthren-3-ylamino)-5-oxopentanoic acid]: 0.222 nM and 11.1.
The matching figures for `C[C@]1(C(=O)NC(=O)[C@@]2(C)CCC[C@]3(C)c4cc(NC(=O)[C@@H](N)CCC(=O)O)ccc4CC[C@@H]23)CCC[C@]2(C)c3cc(NC(=O)[C@@H](N)CCC(=O)O)ccc3CC[C@@H]12` [P11B, (4S,4'S)-5,5′-(4bS,4b'S,8S,8aR,8'S,8a′R)-8,8′-(Azanediylbis(oxomethylene))bis(4b,8-dimethyl-4b,5,6,7,8,8a,9,10-octahydrophenanthrene-8,3-diyl)bis(azanediyl)bis(4-amino-5-oxopentanoic acid)]: 0.112 nM and 10.7.
On to `C[C@H](NC(=O)[C@@H](N)CCC(=O)O)C(=O)Nc1ccc2c(c1)[C@@]1(C)CCC[C@](C)(C(=O)NC(=O)[C@@]3(C)CCC[C@]4(C)c5cc(N)ccc5CC[C@@H]34)[C@@H]1CC2` [P12B, (S)-4-Amino-5-((S)-1-((4bS,8S,8aR)-8-((1S,4aS,10aR)-6-amino-1,4a-dimethyl-1,2,3,4,4a,9,10,10a-octahydrophenanthrene-1-carbonylcarbamoyl)-4b,8-dimethyl-4b,5,6,7,8,8a,9,10-octahydrophenanthren-3-ylamino)-1-oxopropan-2-ylamino)-5-oxopentanoic acid], for which, in experiment [1], the response was half-maximal at 0.296 nM (EC50) and the maximal fold induction is 11.4.
Consider `CN[C@H](CC(C)C)C(=O)N[C@H]1C(=O)N[C@@H](CC(N)=O)C(=O)N[C@H]2C(=O)N[C@H]3C(=O)N[C@H](C(=O)N[C@H](C(=O)O)c4cc(O)cc(O)c4-c4cc3ccc4O)[C@H](O)c3ccc(c(Cl)c3)Oc3cc2cc(c3O[C@@H]2O[C@H](CO)[C@@H](O)[C@H](O)[C@H]2O[C@H]2C[C@](C)(N)[C@H](O)[C@H](C)O2)Oc2ccc(cc2Cl)[C@H]1O` [vancomycin], for which, in experiment [2] (110 mg/kg s.c. twice daily, days 1 to 3 post infection, day 4), the “reduction of S. aureus kidney burden” value was “approximately 2 logs”. Further, the “mice with S. aureus levels below the LOD (in words)” value in experiment [2] (vancomycin alone, 110 mg/kg s.c. twice daily) was “none of the mice had levels of S. aureus reduced below the limit of detection”. Besides, in experiment [2] (setting [3]), the “# of mice with S. aureus below the limit of detection” value was 0/6 and the Average cfu/kidney pair was 2.07E+06 cfu/kidney pair.
